Laboratory results as given in US8617879B2, “Apparatus for cell or tissue culture” (Agency for Science, Technology and Research, priority 2009, dated 2013).

System: C3A cells
Assay: APAP-induced hepatotoxicity IC50 measurement with robotic liquid handler
Assay type: cell-based
Conditions: Homo sapiens
Experimental: Using the human liver cancer cell line C3A, cultured in the bioreactor, IC50 value measurements were conducted with a robotic liquid handler (FIG. 16).

In the case of `CC(=O)Nc1ccc(O)cc1` [APAP, acetaminophen], the IC50 (C3A cells cultured in Si3N4—SC (static)) is reported as 80 mM, the IC50 (C3A cells cultured in Si3N4—SCP (Si3N4 sandwich perfusion in 96-well bioreactor)) is reported as 71 mM and the IC50 (C3A cells cultured in collagen gel sandwich (static)) is reported as 84.6 mM.
